Peptide text beside a SMILES is read from it. * marks the point of attachment. Cbz = O=C(OCc1ccccc1)*; CH2F = FC*
Experiments:
HepG2 cells = test: Cell death inhibition assay; format: cell-based, human; conditions: 24 h
Method: Figure 6. Compound 10g induced oncosis and apoptosis of HepG2 cells. (a) PD150606 and Z-VAD-FMK partially reversed compound 10g-induced cell death. HepG2 cells were incubated with PD150606, Z-VAD-FMK or Necrostatin-1 at indicated concentration for 24 h alone or in combination with compound 10g at indicated concentration for 24 h. (b) Compound 10g induced the degradation of α-tubulin and β-actin, and activated oncosis marker calpain-1 autolysis from the 80 kDa event to 76 kDa event in western blot analysis. *, p < 0.01; **, p < 0.01; #, p < 0.01; &, p < 0.001. (c) Compound 10g induced the upregulation of apoptotic protein Bax, caspase-3, caspase-9 and plasmic cytochrome c levels, and the downregulation of antiapoptotic protein Bcl-2 level. *, p < 0.001; **, p < 0.01; #, p < 0.01; and p < 0.01.

Hep3B = test: MTT cytotoxic assay; format: cell-based, human; conditions: Homo sapiens, Hep3B, 48 h, mean value ± SD
Method: (§1) Three human hepatocarcinoma cell lines (SMMC-7721, HepG2 and Hep3B) and normal hepatocyte cell line (QSG-7701) were maintained in Dulbecco Modified Eagle Medium (DMEM) containing 4.0 mM L-Glutamine and 4500 mg/l Glucose supplemented with 10% (v/v) foetalbovine serum (FBS) and 100 unites/mL penicillin/streptomycin at 37 °C in humidified atmosphere of 5% CO2 and 95% air.
(§2) The in vitro cytotoxic activities of the carbazole derivatives of DHA were evaluated against three human hepatocarcinoma cell lines (SMMC-7721, HepG2 and Hep3B) and a normal human hepatocyte cell line (QSG-7701) via the MTT colorimetric method. Briefly, SMMC-7721, HepG2, Hep3B and QSG-7701 cells were harvested at log phase of growth and seeded in 96-well plates (100 µL/well at a density of 2 × 10^5 cells/mL). After 24 h incubation at 37 °C and 5% CO2 to allow cell attachment, cultures were exposed to various concentrations of the isolated compounds for 48 h. Finally, MTT solution (2.5 mg/mL in PBS) was added (40 µL/well). Plates were further incubated for 4 h at 37 °C, and the formazan crystals formed were dissolved by adding 150 µL/well of DMSO. Absorption at 570 nm was measured with an ELISA plate reader. […] Doxorubicin was co-assayed as positive control.

HepG2 = test: MTT cytotoxic assay; format: cell-based, human; conditions: Homo sapiens, HepG2, 48 h, mean value ± SD
Method: as §1, §2

SMMC-7721 = test: MTT cytotoxic assay; format: cell-based, human; conditions: Homo sapiens, SMMC-7721, 48 h, mean value ± SD
Method: as §1, §2

MEK1 [1] = biological target: T1, MEK1 (Homo sapiens, UniProt Q02750); test: In vitro MEK1 inhibition assay (ADP-Glo kinase assay); format: biochemical; conditions: for IC50: recombinant GST-MEK1, GST-ERK2, 10 µM ATP, mean value ± SD, read-out: MEK1 inhibitory activity IC50 value
T1 construct: purchased Carna Biosciences, Japan
T1 sequence (Q02750 whole entry): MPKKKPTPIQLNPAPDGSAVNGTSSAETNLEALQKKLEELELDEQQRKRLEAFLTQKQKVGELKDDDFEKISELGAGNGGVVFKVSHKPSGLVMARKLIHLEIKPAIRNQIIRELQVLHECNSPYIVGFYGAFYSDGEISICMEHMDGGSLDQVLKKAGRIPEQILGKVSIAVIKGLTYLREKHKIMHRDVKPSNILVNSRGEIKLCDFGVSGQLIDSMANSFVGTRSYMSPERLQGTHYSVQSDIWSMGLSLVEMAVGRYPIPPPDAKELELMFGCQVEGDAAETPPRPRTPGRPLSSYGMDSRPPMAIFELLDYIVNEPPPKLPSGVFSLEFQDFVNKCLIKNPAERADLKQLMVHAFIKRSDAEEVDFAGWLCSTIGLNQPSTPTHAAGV
Method: An in vitro kinase assay of MEK1 was performed using ADP-Glo kinase assay (Promega, Madison, WI, USA) according to the manufacturer’s protocol. […] Reactions were stopped by adding 5 µL of ADP-Glo reagent to each well. After incubating at 22 °C for 40 min, 10 µL of the kinase detection reagent was added and the plates were incubated for another 30 min at 22 °C in the dark. The reaction mixture was analysed by EnSpire (PerkinElmer, Waltham, MA, USA). U0126 was used as the positive control for MEK1 inhibition.

[2] = tested on: normal hepatocyte cell line (QSG-7701); test: MTT cytotoxic assay on normal hepatocytes; format: cell-based, human; conditions: Homo sapiens, QSG7701, 48 h, mean value ± SD
Method: as §1, §2

MEK1/2 = tested on: MEK1/2; set-up: method as in PMID 21245089; conditions: cited from earlier work
[3] = tested on: three human hepatocarcinoma cell lines (SMMC-7721, HepG2 and Hep3B); test: MTT cytotoxic assay, statements over the three cancer cell lines; format: cell-based; conditions: Homo sapiens; at least one of SMMC-7721, HepG2, Hep3B; read-out: IC50 against at least one hepatocarcinoma cell line
Method: as §1, §2

MEK1 [4] = biological target: T1, MEK1; test: Preliminary screening of in vitro MEK1 inhibitory activity; format: biochemical

Structure (SMILES) | IC50 (MEK1 [1]) | IC50 (Hep3B) | IC50 (HepG2) | IC50 (SMMC-7721) | IC50 [2] | other results
O=C(O)/C(S)=C/c1ccc(I)cc1 [PD150606] | – | – | – | – | – | relative cell viability of HepG2 cells treated with 10g plus inhibitor (HepG2 cells; 10g 10 µM in combination with PD150606 50 µM): 44.87%
COC(=O)C[C@H](NC(=O)[C@H](C)NC(=O)[C@@H](NC(=O)OCc1ccccc1)C(C)C)C(=O)CF [Z-VAD-FMK] (Cbz-Val-Ala-Asp(OMe)-CH2F) | – | – | – | – | – | relative cell viability of HepG2 cells treated with 10g plus inhibitor (HepG2 cells; 10g 10 µM in combination with Z-VAD-FMK): 16.53%
CC(=O)Nc1cccc(-n2c(=O)n(C3CC3)c(=O)c3c(Nc4ccc(I)cc4F)n(C)c(=O)c(C)c32)c1 [trametinib] | – | – | – | – | – | IC50 (MEK1/2): 0.0007 to 0.0009 µM
CN1C(=O)C(Cc2c[nH]c3ccccc23)NC1=S (stereo not shown) [Necrostatin-1] | – | – | – | – | – | effect of inhibitor on cell death caused by compound 10g (in words) (HepG2 cells; in combination with 10g): no apparent effect
COC(=O)C1(C)CCCC2(C)c3ccc(C(C)C)cc3-c3c(c4ccccc4n3CCCN3CCN(C)CC3)C12 (stereo not shown) [Compound 7b, 2,3,4,4a,9,13c-Hexahydro-7-isopropyl-1,4a-dimethyl-9–(3-(4-methylpiperazin-1-yl)propyl)-1H-dibenzo[a,c]carbazole-1-carboxylic acid methyl ester] | – | 5.98 ± 0.39 µM | 29 ± 1.29 µM | 6.8 ± 0.72 µM | > 50 µM | IC50 [3]: < 10 µM
COC(=O)C1(C)CCCC2(C)c3ccc(C(C)C)cc3-c3c(c4ccccc4n3CCN3CCCNCC3)C12 (stereo not shown) [Compound 6d, 2,3,4,4a,9,13c-Hexahydro-7-isopropyl-1,4a-dimethyl-9–(2-(1,4-diazepan-1-yl)ethyl)-1H-dibenzo[a,c]carbazole-1-carboxylic acid methyl ester] | – | 6.31 ± 0.33 µM | 5.87 ± 0.42 µM | 7.01 ± 0.74 µM | 22.1 ± 2.75 µM | IC50 [3]: < 10 µM
COC(=O)C1(C)CCCC2(C)c3ccc(C(C)C)cc3-c3c(c4ccccc4n3CCN3CCNCC3)C12 (stereo not shown) [Compound 6a, 2,3,4,4a,9,13c-Hexahydro-7-isopropyl-1,4a-dimethyl-9–(2-(piperazin-1-yl)ethyl) -1H-dibenzo[a,c]carbazole-1-carboxylic acid methyl ester] | 13.2 ± 0.73 µM | 0.82 ± 0.08 µM | 2.28 ± 0.19 µM | 5.2 ± 0.21 µM | 8.75 ± 0.65 µM | MEK1 inhibitory activity (in words) (MEK1 [1]): weak MEK1 inhibitory activity; IC50 [3]: < 10 µM; MEK1 inhibitory activity in preliminary screening (in words) (MEK1 [4]): moderate inhibitory activity

The next lines start with results.

IC50 (MEK1 [1]) | Structure (SMILES) | IC50 (Hep3B) | IC50 (HepG2) | IC50 (SMMC-7721) | IC50 [2] | other results
> 20 µM | CCc1ccc2c(c1)c1c(n2CCN2CCNCC2)-c2cc(C(C)C)ccc2C2(C)CCCC(C)(C(=O)OC)C12 (stereo not shown) [Compound 10c, 2,3,4,4a,9,13c-Hexahydro-12-ethyl-7-isopropyl-1,4a-dimethyl-9–(2-(piperazin-1-yl)ethyl)-1H-dibenzo[a,c]carbazole-1-carboxylic acid methyl ester] | 5.84 ± 0.36 µM | 7.27 ± 0.51 µM | 6.56 ± 0.19 µM | 22.2 ± 1.81 µM | –
> 20 µM | COC(=O)C1(C)CCCC2(C)c3ccc(C(C)C)cc3-c3c(c4cc(C(C)C)ccc4n3CCN3CCNCC3)C12 (stereo not shown) [Compound 10d, 2,3,4,4a,9,13c-Hexahydro-7,12-diisopropyl-1,4a-dimethyl-9–(2-(piperazin-1-yl)ethyl)-1H-dibenzo[a,c]carbazole-1-carboxylic acid methyl ester] | 8.85 ± 0.42 µM | 8.42 ± 0.39 µM | 10.5 ± 0.48 µM | 31 ± 2.39 µM | –
0.23 ± 0.03 µM | COC(=O)C1(C)CCCC2(C)c3ccc(C(C)C)cc3-c3c(c4cccc(OC)c4n3CCN3CCNCC3)C12 (stereo not shown) [Compound 10f, 2,3,4,4a,9,13c-Hexahydro-7-isopropyl-10-methoxy-1,4a-dimethyl-9–(2-(piperazin-1-yl)ethyl)-1H-dibenzo[a,c]carbazole-1-carboxylic acid methyl ester] | 2.23 ± 0.16 µM | 3.15 ± 0.13 µM | 2.03 ± 0.15 µM | 17.3 ± 0.78 µM | –
1.28 ± 0.06 µM | COC(=O)C1(C)CCCC2(C)c3ccc(C(C)C)cc3-c3c(c4cc(OC)ccc4n3CCN3CCNCC3)C12 (stereo not shown) [Compound 10e, 2,3,4,4a,9,13c-Hexahydro-7-isopropyl-12-methoxy-1,4a-dimethyl-9–(2-(piperazin-1-yl)ethyl)-1H-dibenzo[a,c]carbazole-1-carboxylic acid methyl ester] | 4.38 ± 0.35 µM | 3.73 ± 0.19 µM | 3.02 ± 0.21 µM | 15.3 ± 1.13 µM | –
5.62 ± 0.48 µM | COC(=O)C1(C)CCCC2(C)c3ccc(C(C)C)cc3-c3c(c4cc(Cl)ccc4n3CCN3CCNCC3)C12 (stereo not shown) [Compound 10j, 2,3,4,4a,9,13c-Hexahydro-12-chloro-7-isopropyl-1,4a-dimethyl-9–(2-(piperazin-1-yl)ethyl)-1H-dibenzo[a,c]carbazole-1-carboxylic acid methyl ester] | 3.75 ± 0.34 µM | 2.88 ± 0.23 µM | 2.49 ± 0.18 µM | 12.2 ± 1.01 µM | –
> 20 µM | COC(=O)C1(C)CCCC2(C)c3ccc(C(C)C)cc3-c3c(c4cccc(C)c4n3CCN3CCNCC3)C12 (stereo not shown) [Compound 10b, 2,3,4,4a,9,13c-Hexahydro-7-isopropyl-1,4a,10-trimethyl-9–(2-(piperazin-1-yl)ethyl)-1H-dibenzo[a,c]carbazole-1-carboxylic acid methyl ester] | 5.03 ± 0.31 µM | 6.11 ± 0.38 µM | 5.52 ± 0.47 µM | 21.9 ± 1.72 µM | –
> 20 µM | COC(=O)C1(C)CCCC2(C)c3ccc(C(C)C)cc3-c3c(c4cc(F)ccc4n3CCN3CCNCC3)C12 (stereo not shown) [Compound 10i, 2,3,4,4a,9,13c-Hexahydro-12-fluoro-7-isopropyl-1,4a-dimethyl-9–(2-(piperazin-1-yl)ethyl)-1H-dibenzo[a,c]carbazole-1-carboxylic acid methyl ester] | 3.32 ± 0.2 µM | 3.91 ± 0.34 µM | 4.32 ± 0.27 µM | 23.7 ± 1.53 µM | –
6.36 ± 0.51 µM | COC(=O)C1(C)CCCC2(C)c3ccc(C(C)C)cc3-c3c(c4cc(C)ccc4n3CCN3CCNCC3)C12 (stereo not shown) [Compound 10a, 2,3,4,4a,9,13c-Hexahydro-7-isopropyl-1,4a,12-trimethyl-9–(2-(piperazin-1-yl)ethyl)-1H-dibenzo[a,c]carbazole-1-carboxylic acid methyl ester] | 1.17 ± 0.12 µM | 3.05 ± 0.37 µM | 1.73 ± 0.22 µM | 16.3 ± 1.56 µM | –
1.63 ± 0.12 µM | CCOc1cccc2c3c(n(CCN4CCNCC4)c12)-c1cc(C(C)C)ccc1C1(C)CCCC(C)(C(=O)OC)C31 (stereo not shown) [Compound 10h, 2,3,4,4a,9,13c-Hexahydro-10-ethoxy-7-isopropyl-1,4a-dimethyl-9–(2-(piperazin-1-yl)ethyl)-1H-dibenzo[a,c]carbazole-1-carboxylic acid methyl ester] | 1.78 ± 0.12 µM | 4.87 ± 0.48 µM | 2.21 ± 0.17 µM | 18.9 ± 1.09 µM | –

Reference: paper PMC6720511, “Synthesis and biological evaluation of novel N-(piperazin-1-yl)alkyl-1H-dibenzo[a,c]carbazole derivatives of dehydroabietic acid as potential MEK inhibitors” (Journal of Enzyme Inhibition and Medicinal Chemistry, 2019)
